Measurements reported in patent US20030096379A1, “Method for producing tryptamine derivatives” (priority 2001, published 2003).

Columns and labels:
[1] = target: T1, E. coli DH5α tryptophan synthase (TrpBA) (Escherichia coli, UniProt P0A879); format: biochemical; design: key: +: a clear ninhydrin-positive spot at the Rf of standard tryptophan derivatives after 16-65 h; (+): a weak spot in the product region; −: no product observed; NR: experiment not run; details: indole derivative + L-serine + PLP, 37° C., 16-65 h, ninhydrin
T1 construct: made in house; host or cells: E. coli LMG194 (pBAD) or BL-21 (pET)
Experimental: (§1) A mixture containing 2 μmole of the indole derivative, 0.05 μmole of PLP and 50 μmol of L-serine in 40 mM KPi buffer in 8% v/v ethanol water, pH 7.5, was warmed to 37° C., then enzyme solution was added to give a final volume of 1 mL. Aliquots (100 μL) were quenched at intervals of 2, 6, and 24 hours or more in microcentrifuge capsules containing 25 μL of 6 M HCl. The quenched samples were evaporated in a Savant Speed-vac. The residues were resuspended in methanol/water (1:1, 50 μL) and analyzed by TLC on Silica gel GF254 plates alongside tryptophan and tryptamine standards, eluting with CH2Cl2/EtOH/H2O/HOAc 77:20:2:1. Products were visualized first by using short-wave UV light, then with ninhydrin spray reagent (1/1/98 w/v/v ninhydrin/HOAc/EtOH) followed by heating.
(§2) Substituted indoles were incubated with L-serine, PLP and enzyme (TrpBA or TnA) prior to TLC analysis as generally described in Example 6. Serine, which can be used instead of pyruvate and ammonia for tryptophan synthesis with TnA, was employed as the 3-carbon acid because pyruvate tended to obscure the tryptophan product spots when plates were visualized with ninhydrin. TnA-catalyzed formation of tryptophan was also faster when serine was the 3-carbon donor. Reaction rates for several substrates were also estimated by HPLC.
(§3) In Table 4, “+” indicates a clear ninhydrin-positive spot at the Rf of standard tryptophan derivatives after 16-65 h; “(+)” indicates a weak spot in the product region; “−” means no product observed, “NR” means experiment not run. ESMS=electrospray mass spectrometry. Unless otherwise indicated, the mass value given represents the singly-protonated molecular ion (M+1).

tryptophanase (TnA) = target: T2, tryptophanase (TnA) (Escherichia coli, UniProt P0A853); format: biochemical, E. coli; design: key: +: a clear ninhydrin-positive spot at the Rf of standard tryptophan derivatives after 16-65 h; (+): a weak spot in the product region; −: no product observed; NR: experiment not run; details: indole derivative + L-serine + PLP, 37° C., 16-65 h, ninhydrin
T2 construct: made in house; host or cells: E. coli LMG194 (pBAD) or BL-21 (pET)
Experimental: as §1, §2, §3

TrpBA = target: T3, TrpBA (Escherichia coli, UniProt P0A879); assay: Relative rates of tryptophan derivative synthesis by HPLC, TrpBA; format: biochemical, E. coli; design: key: **: rate too slow to quantitate; details: initial rate estimated by HPLC, indole = 100%
T3 construct: made in house; host or cells: E. coli LMG194 (pBAD) or BL-21 (pET)
Experimental: (§4) Reaction mixtures were prepared as in Example 6 and were incubated at 37° C. Aliquots (100 μL) were removed and quenched by addition of to 300 μL of 0.5 M sodium citrate, pH 3.0 in 10% v/v acetonitrile/water in 2 ml microcentrifuge tubes. Following centrifugation for 10 min at 13,000×g, the supernatants were passed through 0.45μ membrane filters prior to HPLC analysis of 20 μL of filtrate.
(§5) TnA reactions were run with L-serine as the 3-carbon substrate.

TnA = target: T4, TnA (Escherichia coli, UniProt P0A853); assay: Relative rates of tryptophan derivative synthesis by HPLC, TnA; format: biochemical, E. coli; details: initial rate estimated by HPLC, indole = 100%, L-serine as the 3-carbon substrate
T4 construct: made in house; host or cells: E. coli LMG194 (pBAD) or BL-21 (pET)
Experimental: as §4, with “Aliquots” for “Reaction mixtures were prepared as in Example 6 and were incubated at 37° C. Aliquots”
as §5

TrpBA and TDC1 = assay: Coupled enzyme synthesis monitored by HPLC; format: biochemical; details: L-serine, PLP, pH 8.5 phosphate buffer, 37° C.
Experimental: To a solution containing L-serine (25 μmol), pyridoxal phosphate (0.05 μmol) and TrpBA (0.02 to 1.5 units, depending on the substrate), TDC1 (0.2 mL 0.6 units) and KPi buffer (0.05 mmol, pH 7.5) in a volume of 0.8 mL were added […] of 5 mM indole derivative in 20% v/v ethanol/water. The mixture was incubated at 37° C. and aliquots were quenched and analyzed as described for Example 8. In cases where tryptamine and/or tryptophan standards were not available, peaks were collected for mass spectral analysis. Electrospray mass spectral analyses were performed.
Mixtures containing indole, L-serine, PLP and TDC1 were incubated in pH 8.5 phosphate buffer, analyzing aliquots by HPLC, as described in Example 12.
The procedure used in Example 24 was carried out by substituting indole with 2-methylindole, 4-hydroxymethylindole, 5-methoxy-, 5-hydroxymethyl-, 5-methoxycarbonyl, and 5,6-dimethoxyindole.

[2] = Tryptophanase (tryptophan lyase) activity of the enzyme preparation; format: biochemical, E. coli
Experimental: Tryptophan synthase activity was assayed by monitoring the increase in absorbance at 290 nm of a mixture containing serine, indole and PLP (Higgins, W., et al., Biochemistry, 1979, 18, 4827). TnA-catalyzed tryptophan synthesis was also measured by the 290 nm assay, while the tryptophan lyase reaction rate was measured by monitoring the reduction in NADH in reaction mixtures containing L-tryptophan and lactate dehydrogenase, indicating the amount of pyruvate released. Tryptophan decarboxylase was assayed colorimetrically by monitoring the sabsorbance at 580 nm produced by serotonin (AAADs) or tryptamine (TDCs) following treatment of reaction aliquots with Ehrlich's reagent (4-N,N-(dimethyl)aminobenzaldehyde in ethanolic HCl; Nakazawa, H.; Kumagi, H.; Yamada, H. Biochem Biophys. Res. Commun., 1974, 61, 75-82). Serotonin could be detected with approximately 5-fold higher sensitivity by this method as compared with tryptamine. The Ehrlich reagent assay using a microtiter plate format for simultaneous analysis of multiple enzyme samples may also be used. HPLC analysis was performed on acid-quenched reaction aliquots by using a base-deactivated C8 reversed-phase support (Shandon Hypersil BD8). HPLC analysis of acid-quenched aliquots permitted calculation of a rate ratio of 4.5 to 1 for pkAAAD-catalyzed DOPA decarboxylation relative to that of L-5-hydroxytryptophan, in good agreement with the accepted ratio of approximately 5:1. (See Sourkes, T. L. Methods Enzymol., 1987, 142, 170-178, which is incorporated herein by reference.)
Activity is expressed as μmol product formed per minute, TrpBA activity is reported for the reaction: indole+serine−>tryptophan at room temperature as described in the next section. Tryptophanase is reported for the reaction: tryptophan−>indole+pyruvate+NH4^+ at room temperature. The rate of tryptophan synthesis for TrpBA under our assay conditions is approximately 3-fold higher at 37° C.

[3] = pH-rate profiles for tryptophan-metabolizing enzymes; format: biochemical; details: between pH 7.5 and 9.5, L-serine and indole
From the text: Both AAADs TDC1 and TDC2 were active over the entire optimum range shown by TrpBA. These broad activity ranges make it clear that the coupled enzyme process is not limited by pH.

T3 sequence (P0A879 whole entry): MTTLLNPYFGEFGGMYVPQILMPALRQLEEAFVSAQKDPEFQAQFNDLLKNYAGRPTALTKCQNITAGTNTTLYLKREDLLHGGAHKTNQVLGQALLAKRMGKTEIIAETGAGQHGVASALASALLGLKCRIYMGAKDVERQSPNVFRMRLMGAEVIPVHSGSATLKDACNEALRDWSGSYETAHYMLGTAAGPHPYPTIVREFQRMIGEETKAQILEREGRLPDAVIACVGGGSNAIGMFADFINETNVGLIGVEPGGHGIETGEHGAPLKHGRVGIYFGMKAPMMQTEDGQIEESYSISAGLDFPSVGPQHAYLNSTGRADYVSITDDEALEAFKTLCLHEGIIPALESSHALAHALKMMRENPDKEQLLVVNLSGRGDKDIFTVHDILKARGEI
T3 sequence (P0A877 whole entry, further chain): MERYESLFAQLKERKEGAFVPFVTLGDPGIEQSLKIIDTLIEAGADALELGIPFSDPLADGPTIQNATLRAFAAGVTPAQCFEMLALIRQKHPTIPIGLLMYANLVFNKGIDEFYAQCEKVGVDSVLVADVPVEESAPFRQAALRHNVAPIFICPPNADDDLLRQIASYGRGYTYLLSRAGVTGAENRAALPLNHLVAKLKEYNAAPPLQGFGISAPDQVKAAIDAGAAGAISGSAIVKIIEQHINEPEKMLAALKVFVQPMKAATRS
T1 sequence (P0A879 whole entry): as the sequence (P0A879 whole entry) above
T1 sequence (P0A877 whole entry, further chain): as the sequence (P0A877 whole entry, further chain) above
T2 sequence (P0A853 whole entry): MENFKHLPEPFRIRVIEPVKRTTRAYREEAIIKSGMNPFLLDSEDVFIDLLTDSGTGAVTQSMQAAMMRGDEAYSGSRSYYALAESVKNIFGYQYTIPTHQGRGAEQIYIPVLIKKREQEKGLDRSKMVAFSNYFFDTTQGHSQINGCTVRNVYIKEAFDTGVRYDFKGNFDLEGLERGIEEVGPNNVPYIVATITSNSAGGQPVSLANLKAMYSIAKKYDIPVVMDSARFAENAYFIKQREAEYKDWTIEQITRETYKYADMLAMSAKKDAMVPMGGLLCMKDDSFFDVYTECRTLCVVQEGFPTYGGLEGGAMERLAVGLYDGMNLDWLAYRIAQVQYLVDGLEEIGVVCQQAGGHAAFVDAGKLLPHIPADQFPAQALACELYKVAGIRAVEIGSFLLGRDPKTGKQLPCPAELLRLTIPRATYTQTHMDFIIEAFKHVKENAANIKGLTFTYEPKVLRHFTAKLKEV
T4 sequence (P0A853 whole entry): as above

Compound	TrpBA (tryptophan product spot, TLC analysis) [1]	TnA (tryptophan product spot, TLC analysis) (tryptophanase (TnA))	Relative rate (TrpBA) (TrpBA)	Relative Rate (TnA) (TnA) [%]	formation of tryptophan derivative and tryptamine (HPLC peaks) (TrpBA and TDC1)	Crude specific activity ([2]; Table 3, TnA) [units/mg]	Crude spec activity ([2]; TnA, tryptophan->indole+pyruvate+NH4+, room temperature)	Purified specific activity ([2]; TnA, tryptophan->indole+pyruvate+NH4+, room temperature, after DEAE cellulose) [Units/mg]	percent of the maximum rate [3] [%]	Relative rate (TrpBA) (TrpBA; L-serine) [%]
COc1cc2cc[nH]c2cc1OC [5,6-dimethoxy, 5,6-dimethoxyindole]	−	(+)	**	2.1	a second peak representing formation of tryptamine					
TnA: E. coli tryptophanase, E.C. 4.1.99.1, cloned and expressed in E. coli						0.8	0.8	2.0	≥ 84	
c1ccc2[nH]ccc2c1 [indole, reference compound]	+	+		100	clearly observable					100
OCc1ccc2[nH]ccc2c1 [5-hydroxymethyl-, indole-5-methanol]	+	+		1.2	a second peak representing formation of tryptamine					0.03
